Where two headings read alike, the source gives them in different places.
What was measured:
human 11β-HSD type 1 [1] = molecular target: T1, human 11β-HSD type 1 (Homo sapiens, UniProt P28845); assay: Plasma bioactivity after single oral administration in C57BL/6N mice, read as inhibition of human 11β-HSD type 1 (SPA); format: in vivo; settings: for inhibition at 2.5 mg/kg / inhibition at 10 mg/kg: po, mice, table with plasma levels; for inhibition at 2.5 mg/kg: 2.5 mg/kg oral; for inhibition at 10 mg/kg: 10 mg/kg oral
T1 sequence (P28845 whole entry): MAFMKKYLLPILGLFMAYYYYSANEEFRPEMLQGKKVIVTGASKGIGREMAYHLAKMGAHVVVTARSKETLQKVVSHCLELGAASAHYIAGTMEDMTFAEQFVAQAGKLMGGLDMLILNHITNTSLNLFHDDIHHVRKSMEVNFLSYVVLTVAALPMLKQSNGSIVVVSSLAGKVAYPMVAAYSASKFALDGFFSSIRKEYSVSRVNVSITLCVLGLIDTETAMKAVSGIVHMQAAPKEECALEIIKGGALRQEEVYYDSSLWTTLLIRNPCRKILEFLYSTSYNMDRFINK
Procedure: (§1) The evaluation is made in on 4- to 6-week-old non-fasted male C57BL/6N strain mice. The compounds to be tested or the vehicle (0.5% methylcellulose in water, at 10 ml/kg) are administered orally; n=3 mice per treatment.
(§2) Blood samples are collected 1 h and 4 h after administration; the tubes are centrifuged to obtain plasma and frozen at −70° C. until bioanalysis. Plasma bioactivity (2% final volume) is analyzed by using the inhibition of human 11β-HSD type 1 as a detection system (SPA technology) for each compound at each dose tested. Percent inhibition (versus mice treated with carrier) is calculated for each dose.

[2] = Clinical and behavioral signs in cynomolgus monkeys during the prednisone challenge studies; format: in vivo; settings: study no. 2, 20, 40 and 80 mg/kg, even at 80 mg/kg
Procedure: Briefly, the study is carried out in naive adult male cynomolgus monkeys fasted overnight. The 11β-HSD type 1 inhibitor or its vehicle (0.5% methylcellulose in water) is administered via nasogastric intubation. Two hours later, a challenge with orally administered prednisone (10 mg/kg) is performed and blood samples are taken regularly for 24 hours. These samples are centrifuged to obtain plasma and immediately frozen at −70° C. until bioanalysis. Plasma levels of prednisone, prednisolone and 11β-HSD type 1 inhibitors are measured by LC-MS/MS analytical methods.
The study is carried out over a period of 10 weeks. Profiles of plasma concentration as a function of time and areas under the curve are calculated using the trapezoidal method for all parameters.

human 11β-HSD 1 = molecular target: T2, human 11β-HSD 1 (Homo sapiens, UniProt P28845); assay: Inhibition of human 11β-HSD 1 in primary human differentiated adipocytes in culture (cortisone to cortisol, SPA); format: cell-based
T2 construct: evaluated on primary human adipocytes in culture (ZenBio); host or cells: primary human preadipocytes differentiated into adipocytes, from three donors
T2 sequence (P28845 whole entry): as above
Procedure: Inhibition of human 11β-HSD 1 enzyme is evaluated on primary human adipocytes in culture (ZenBio).
Preadipocytes are thawed and their viability is confirmed. The preadipocytes are then placed in 96-well microplates in a specific preadipocyte medium (PM-1) provided by ZenBio; the plates are incubated at 37° C. with 5% CO2. One day or more after the cells are confluent, PM-1 is replaced with a more specific differentiation medium (DM), also provided by ZenBio, containing isobutylmethylxanthine, insulin, dexamethasone and a PPAR agonist. The cells will differentiate into adipocytes after a minimum of 7 days. Next, the mature adipocytes are maintained for 4 to 6 days in adipocyte maintenance medium (AM). Then, in the presence of serum treated with dextran-coated charcoal, the cells are placed in steroid-deficient conditions for 48 h, and are pretreated with the inhibitors to be tested or their carrier (0.1% DMSO) for 1 h at 37° C. before the pulse with cortisone. Tritiated cortisone is added for 4 hours to reach a final concentration of 20 nM. The cortisol concentration is quantified from the cell supernatant using SPA technology. EC50 values are obtained with the SigmaPlot v.11 software, four parameter logistic equation; the reported values come from three different experiments carried out on three different donors.

hepatic 11β-HSD type 1 = assay: Ex vivo activity of hepatic 11β-HSD type 1 after single oral administration in cynomolgus monkeys; settings: 20 mg/kg single oral, liver 4 hours after administration
Procedure: (§3) Five adult male cynomolgus monkeys (same animals used in studies 1 and 2 of Example 4) are fasted the evening before the experiment. Blood samples are taken right before administration of Compound 1K (dose of 20 mg/kg, n=3) or administration of the vehicle (0.5% methylcellulose in water, n=2) then 4 hours after oral administration. The animals are euthanized, necropsy is performed on the monkeys, samples of plasma and of target tissues are taken and then frozen in liquid nitrogen and stored at −70° C. until ex vivo analyses. To test the ex vivo activity of 11β-HSD type 1, 5-10 mg liver samples were incubated in duplicate for 30 minutes at 37° C. with 17 nM [1,2-^3H] cortisone in 50 mM HEPES (pH 7.4), 100 mM KCl, 5 mM NaCl, 2 mM MgCl2. Plasma levels were measured by the LC-MS/MS analytical method. The liver samples were homogenized by sonication and extracted with acetonitrile (1 ml of distilled water, 4 ml of acetonitrile for 200 mg of tissue). Tissue levels of the compounds were measured by the LC-MS/MS analytical method.

[3] = Plasma level by LC/MS after single oral administration in C57BL/6N mice; format: in vivo; settings: parent molecule by LC/MS
Procedure: as §1, §2
Compound 1 is detected in the plasma of the treated mice and inhibits 11β-HSD type 1 as of 0.63 mg/kg. LC/MS analyses of plasma samples from the animals treated with Compound 1K show a much higher plasma level of the parent molecule than that found for Compound 1.

[4] = Plasma and tissue levels after single oral administration in cynomolgus monkeys (LC-MS/MS); format: in vivo; settings: male, cynomolgus monkey, 20 mg/kg oral
Procedure: as §3
(§4) The protocol is the same as that described in Example 5, except that the tissue samples are from mesenteric, subcutaneous and inguinal adipose tissue.

[5] = system: 11β-HSD type 1 of adipose tissue; assay: Ex vivo activity of 11β-HSD type 1 of adipose tissue after single oral administration to cynomolgus monkeys; format: in vivo; settings: 20 mg/kg single oral, 4 hours, mesenteric and subcutaneous adipose tissue
Procedure: as §3, §4

human 11β-HSD type 1 [6] = molecular target: T1, human 11β-HSD type 1; assay: Bioactivity of inguinal white adipose tissue after single oral administration in C57BL/6N mice, read as inhibition of human 11β-HSD type 1 (SPA); format: in vivo; settings: mouse inguinal white adipose tissue extract
Procedure: Four hours post-administration, the mice are euthanized and inguinal white adipose tissue is taken and frozen at −70° C. until the day of bioanalyses. The white adipose tissue is homogenized in liquid nitrogen and then treated with acetonitrile (1 ml of distilled water for 4 ml of acetonitrile and 200 mg of inguinal white adipose tissue) to extract soluble substances. The acetonitrile fraction is collected, then dried, and the residue is dissolved in 1 ml of DMSO for 300 mg of white adipose tissue.
Compounds tested: the same as those of Example 2.

[7] = 1 h, read-out: Plasma 1 h % inh.
[8] = 4 h, read-out: Plasma 4 h % inh.

Question: For `CN1C(C(=O)c2ccc3ccccc3c2)=C([O-])c2ccccc2S1(=O)=O.[K+]` [Compound 1K, potassium 3-(2-naphthoyl)-2-methyl-2H-benzo[e][1,2]thiazin-4-olate 1,1-dioxide], which “% inhibition at 1 h” value (human 11β-HSD type 1 [1]; mouse plasma (2% final volume), 1 h after 0.63 mg/kg oral) is on record?
Answer: Its value is 47%.

Question: And the “% inhibition at 1 h” value (human 11β-HSD type 1 [1]; mouse plasma, 1 h after 2.5 mg/kg oral)?
Answer: The value was 78%.

Question: And the “% inhibition at 1 h” value (human 11β-HSD type 1 [1]; mouse plasma, 1 h after 10 mg/kg oral)?
Answer: The value was 91%.

Question: What about the “% inhibition at 4 h” value (human 11β-HSD type 1 [1]; mouse plasma, 4 h after 0.63 mg/kg oral) of the same compound?
Answer: The value was 36%.

Question: And the “% inhibition at 4 h” value (human 11β-HSD type 1 [1]; mouse plasma, 4 h after 2.5 mg/kg oral)?
Answer: The value was 67%.

Question: What about the “% inhibition at 4 h” value (human 11β-HSD type 1 [1]; mouse plasma, 4 h after 10 mg/kg oral) of the same compound?
Answer: The value was 86%.

Question: What about the inhibition at 2.5 mg/kg (human 11β-HSD type 1 [1]; [7]) of the same compound?
Answer: The inhibition at 2.5 mg/kg was 75 ± 4%.

Question: What about the inhibition at 2.5 mg/kg (human 11β-HSD type 1 [1]; [8]) of the same compound?
Answer: The inhibition at 2.5 mg/kg was 63 ± 6%.

Question: And the inhibition at 10 mg/kg (human 11β-HSD type 1 [1]; [7])?
Answer: The inhibition at 10 mg/kg was 89 ± 1%.

Question: And the inhibition at 10 mg/kg (human 11β-HSD type 1 [1]; [8])?
Answer: Its inhibition at 10 mg/kg is 85 ± 2%.

Question: What about the “clinical or behavioral sign” value [2] of the same compound?
Answer: The value was “No particular clinical or behavioral sign”.

Question: And the “Emax (% inhibition at 10 μM)” value (human 11β-HSD 1; 10 μM)?
Answer: The value was 97 % inhibition.

Question: What about the EC50 (human 11β-HSD 1; 1 h pretreatment, 20 nM tritiated cortisone 4 h, three donors) of the same compound?
Answer: Its EC50 is 58 nM.

Question: What about the “inhibition of the ex vivo activity of hepatic 11β-HSD type 1” value (hepatic 11β-HSD type 1) of the same compound?
Answer: The value was 68%.

Question: And the “Plasma 1 h” value ([3]; 10 mg/kg oral, 1 h)?
Answer: Its value is 13900 ± 2117 ng/mL.

Question: What about the concentration at 1 h ([3]; male, C57BL/6N, mouse, plasma, po, 2.5 mg/kg, 2.5 mg/kg oral, 1 h) of the same compound?
Answer: Its concentration at 1 h is 4240 ± 1260 ng/mL.

Question: And the concentration at 4 h ([3]; male, C57BL/6N, mouse, plasma, po, 2.5 mg/kg, 2.5 mg/kg oral)?
Answer: The concentration at 4 h was 3470 ± 2430 ng/mL.

Question: What about the concentration at 4 h ([3]; male, C57BL/6N, mouse, plasma, po, 10 mg/kg, 10 mg/kg oral) of the same compound?
Answer: Its concentration at 4 h is 6810 ± 674 ng/mL.

Question: What about the concentration at 4 h ([4]; liver, read-out: mean hepatic levels (in relative value)) of the same compound?
Answer: The concentration at 4 h was 13600 ± 3700 ng/g.

Question: What about the concentration at 4 h ([4]; inguinal adipose tissue, read-out: tissue levels (in relative value), inguinal adipose tissue) of the same compound?
Answer: The concentration at 4 h was 6100 ± 1500 ng/g.

Question: What about the concentration at 4 h ([4]; mesenteric adipose tissue, read-out: tissue levels (in relative value), mesenteric adipose tissue) of the same compound?
Answer: Its concentration at 4 h is 6600 ± 400 ng/g.

Question: What about the concentration at 4 h ([4]; plasma, ± SEM, n=3, read-out: mean plasma levels) of the same compound?
Answer: The concentration at 4 h was 17000 ± 3580 ng/mL.

Question: And the concentration at 4 h ([4]; subcutaneous adipose tissue, read-out: tissue levels (in relative value), subcutaneous adipose tissue)?
Answer: The concentration at 4 h was 1300 ± 100 ng/g.

Question: And the “inhibition of ex vivo activity of 11β-HSD type 1 of peripheral and visceral adipose tissue” value [5]?
Answer: The value was “complete inhibition”.

Question: And the “% inhibition after 4 h” value (human 11β-HSD type 1 [6]; 4 h after 0.63 mg/kg oral)?
Answer: The value was 21%.

Question: And the “% inhibition after 4 h” value (human 11β-HSD type 1 [6]; 4 h after 2.5 mg/kg oral)?
Answer: The value was 41%.

Question: What about the “% inhibition after 4 h” value (human 11β-HSD type 1 [6]; 4 h after 10 mg/kg oral) of the same compound?
Answer: The value was 70%.

Source: patent US20180140609A1, “USE OF (4-HYDROXY-2-METHYL-1,1-DIOXIDO-2H-BENZO[E][1,2]THIAZINE-3-YL)(NAPHTHALENE-2-YL) METHANONE IN THE PREVENTION AND/OR TREATMENT OF NON-ALCOHOLIC STEATOHEPATITIS” (PIERRE FABRE MEDICAMENT, priority 2015, published 2018)
